In US20260098008A1, “COVALENT, CHEMOGENETIC ACTIVATORS FOR K2P POTASSIUM CHANNELS AND USES THEREOF” (THE REGENTS OF THE UNIVERSITY OF CALIFORNIA, priority 2022, published 2026):

Assays:
Assay type in all cases: cell-based
Q258K K2P4.1 (TRAAK)^CG* = target: T1, Q258K K2P4.1 (TRAAK)^CG* (Homo sapiens, UniProt Q9NYG8, Q232K/S92C); assay: TEVC in Xenopus oocytes; conditions: 20 μM; after 2 min
T1 construct: expressed in transfected cells; host or cells: Xenopus laevis oocytes injected with mRNA
T1 sequence (Q9NYG8 1-393 S92C/Q232K): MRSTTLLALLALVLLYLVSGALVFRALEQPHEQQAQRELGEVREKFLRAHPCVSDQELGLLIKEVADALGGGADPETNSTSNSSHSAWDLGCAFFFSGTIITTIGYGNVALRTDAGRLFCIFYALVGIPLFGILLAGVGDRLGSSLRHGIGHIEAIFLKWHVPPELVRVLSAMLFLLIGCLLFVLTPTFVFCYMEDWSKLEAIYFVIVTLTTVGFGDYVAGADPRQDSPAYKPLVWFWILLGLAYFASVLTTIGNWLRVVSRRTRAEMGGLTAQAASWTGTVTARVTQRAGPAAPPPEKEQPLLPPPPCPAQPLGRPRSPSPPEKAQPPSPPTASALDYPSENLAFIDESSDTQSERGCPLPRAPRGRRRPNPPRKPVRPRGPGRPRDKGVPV

[1] = target: T2, TREK-1^CG* (K2P2.1 (TREK-1) S131C) (Mus musculus, UniProt P97438, S146C); assay: TEVC in Xenopus oocytes; conditions: for Reversibility of activation on washout: 20 μM, Xenopus oocytes
T2 construct: expressed in transfected cells; host or cells: Xenopus laevis oocytes injected with mRNA
T2 sequence (P97438 1-411 isoform P97438-2 S131C): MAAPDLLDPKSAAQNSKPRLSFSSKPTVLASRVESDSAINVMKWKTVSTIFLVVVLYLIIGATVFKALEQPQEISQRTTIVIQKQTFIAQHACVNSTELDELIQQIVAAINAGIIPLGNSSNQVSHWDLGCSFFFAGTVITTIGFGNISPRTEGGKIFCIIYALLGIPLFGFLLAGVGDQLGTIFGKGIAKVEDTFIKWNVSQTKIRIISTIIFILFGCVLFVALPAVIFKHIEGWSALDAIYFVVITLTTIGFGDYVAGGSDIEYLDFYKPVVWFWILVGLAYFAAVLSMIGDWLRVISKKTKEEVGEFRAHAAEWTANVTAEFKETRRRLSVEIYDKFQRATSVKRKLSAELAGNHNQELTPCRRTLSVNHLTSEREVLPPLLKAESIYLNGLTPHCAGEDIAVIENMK

[2] = tested on: HEK293 cells (no exogenous K2P expression); assay: Resting membrane potential, current-clamp (I=0) in control HEK293 cells; conditions: 20 μM CAT335
Description: 50% confluent cells were co-transfected (in 35-mm diameter wells) with 10-100 ng of the K2P2.1 plasmid and 400 ng of an eGFP plasmid (for visualization) using LipofectAMINE 2000 (Invitrogen) for 24 h, after which the cells were either plated onto coverslips or the media exchanged with fresh media. Cells were plated onto Matrigel coated coverslips (BD Biosciences) 1-2 hours before experiments.
Whole-cell patch-clamp experiments with K2P2.1(TREK-1) and mutants were carried out 24-48 h after transfection. Acquisition and analysis for voltage-clamp experiments were performed using pCLAMP10 and an Axopatch 200B amplifier (Molecular Devices). Current-clamp experiments were acquired using an […] amplifier (Molecular Devices). Pipettes were pulled using a Flaming/Brown micropipette puller (P-97, Sutter Instruments) and flame-polished using a MF-830 microforge (Narishige). Electrode resistance after filling with pipette internal solution ranged from 2 to 5 MΩ. Currents were low-pass filtered at 2 kHz and sampled at 10 kHz. Pipette solution contained the following: 145 mM KCl, 3 mM MgCl2, 5 mM EGTA and 20 mM HEPES (pH 7.2 with KOH). Bath solution contained the following: 145 mM NaCl, 5 mM KCl, 1 mM CaCl2, 3 mM MgCl2 and 20 mM HEPES (pH 7.4 with NaOH). […] Data were analyzed using Clampfit 11 and GraphPad Prism 9.

Fold-activation (I activator/I control) (Q258K K2P4.1 (TRAAK)^CG*) [fold] | Reversibility of activation on washout [1] | Emax (IML335/Icontrol) ([1]; TEVC at 0 mV) [fold activation] | EC50 ([1]; TEVC at 0 mV, normalized to initial currents) [µM] | Compound | Change of resting membrane potential (ΔRMP) [2]
3.7±0.3 | immediate reversal | 9.6±0.8 | 18 ± 4 | CS(=O)(=O)Nc1ccc(C(=O)NCc2ccc(Cl)cc2Cl)cc1 [ML335, reference compound] | 
7.4 ± 0.6 | irreversible |  |  | O=C(NCc1ccc(Cl)cc1Cl)c1ccc(N2C(=O)C=CC2=O)cc1 [CAT335] | +7 mV
